Experimental data published in US4743606A, “3-[2-(3',5'-di-t-butyl-4'-hydroxyphenyl)ethenyl]pyridine having anti-inflammatory and anti-arthritic properties” (Boehringer Ingelheim Pharmaceuticals, Inc., priority 1986, dated 1988).
Like-named read-outs stand apart in the source and are kept apart here.

How the values were obtained:
[1] = system: Polyarthritis (adjuvant-induced, heat-killed Mycobacterium butyricum) in male CD rats; experiment: Developing Adjuvant-Induced Polyarthritis in Rats; type: in vivo, rat; conditions: for % Inhibition: oral, once daily 14 days, non-injected hind paw volume
Procedure: This test is used to determine the ability of compounds to affect the immunological processes involved in the induction and development of arthritis.
(§1) Polyarthritis is induced in male CD rats (150-170 g) by injection of heat-killed Mycobacterium butyricum. Each animal is given 0.1 ml of a 0.5% (5 mg/ml) adjuvant suspension in light mineral oil injected subcutaneously into the plantar surface of the right hind foot. At least 6 rats are used in each test group. Animals are dosed orally with test compound immediately after adjuvant injection, and once daily for a total of 14 days. Foot volumes are measured 24 hours after the final dose by mercury displacement to the lateral malleolus. Mean displacement volumes and their standard errors are calculated for the non-injected hind paws. Untreated normal and arthritic control groups are used as comparison for test compound effect. Results are expressed as percent of control effect.
The experiments reported here are performed using the same procedures as described in Example 3, except that 4-[2-(3',5'-di-t-butyl-4'-hydroxyphenol)ethenyl]pyridine (prior art) is under assay rather than the compound of the invention.

[2] = system: established adjuvant-induced polyarthritis in rats; experiment: Established Adjuvant-Induced Polyarthritis in Rats; type: in vivo, rat
Procedure: as §1
This assay is used to determine the ability of compounds to affect an established chronic inflammatory condition.
Rats in which polyarthritis has become established are selected 14 days after receiving the adjuvant suspension. They are treated daily with oral doses of test compound for 14 days (days 14-27). […] 24 hours after the final dose.

in vivo = conditions: rat
Procedure: A 50% ulcerogenic response in the animals tested (UD50) at 200 mg/kg for 4 days is observable when the rats are examined 24 hours after the last dose.

[3] = system: MMC-16 cells, LTC4 release (lipoxygenase pathway); experiment: Mouse Mastocytoma Cell Leukotriene Release; type: cell-based
Procedure: The MMC-16 cell line represents a convenient in vitro model for studying the lipoxygenase pathway and offers an effective screening method by which inhibitory test compounds can be identified.
Cultured MMC-16 cells are suspended in Ca^++ free phosphate buffer at a concentration of 10^7 cells/ml. The cell suspension is distributed into plastic culture tubes, 1 ml/tube. Duplicate tubes are used for each drug concentration tested, with drug solution (0.2 ml) added to each tube. An ionophore control consists of Ca^++ free buffer (0.2 ml) added to two tubes, and a blank (0.4 ml Ca^++ free buffer) added to two tubes. CaCl2 solution (0.1 ml) is added to the drug and ionophore control tubes, which are vortexed and incubated at 37° C. for 40 minutes. The tubes are then centrifuged at 1,000×g for 10 minutes, and the supernatants collected and added to 4 volumes of absolute ethanol. LTC4 content is then assayed for by either radioimmunoassay or high performance liquid chromatography.

[4] = system: reverse passive arthus reaction (paw swelling) in rats; experiment: Reverse Passive Arthus Reaction; type: in vivo, rat
Procedure: The reverse passive arthus reaction is initiated by the interaction of antigen and antibody resulting in the formation of a precipitating immune complex, followed by fixation of complement, accumulation of leukocytes, edema and hemorrhage. The immunopathology of rheumatoid arthritis involves many of the parameters found in this reaction.
Test groups (5 rats per group) are dosed orally with compounds one hour prior to the sub-plantar injection into the right hind paw of rabbit anti-ovalbumin antibody (50 μg/0.1 ml). Immediately afterwards, ovalbumin (Sigma, #5503) (5 mg/0.2 ml) is injected i.v. via the tail vein. The right hind paw volume is measured at hourly intervals, from one to four hours after the injection of the immune reactants.
The change in paw volume for each animal is calculated by subtracting the zero hour paw volume (before injection) from the paw volume at the time of measurement. The mean of these values is calculated for each group. Results are expressed as percent inhibition of paw swelling compared to untreated controls.

[5] = system: Human neutrophils (respiratory burst, H2O2 production); experiment: Effect of Test Compound on H2O2 Production by Neutrophils (PMNs); type: cell-based; conditions: for IC50: Homo sapiens, Neutrophil
Excerpt: During this process molecular oxygen is converted to superoxide anion, which in turn yields hydrogen peroxide, hydroxyl radical and products of myeloperoxidase action. These activated oxygen species contribute to the cells microbiocidal activity. However they have also been reported to contribute to the inflammatory process and tissue destruction in rheumatic diseases [J. Fantone and P. Ward, Amer. […] This assay measures the ability of a test compound to inhibit the respiratory burst process by its effect on hydrogen peroxide production.
Either 10 μL stock solution of test compound or 10 μL medium is added to the appropriate tubes, followed by 1 ml cells in each tube. The tubes are incubated at 37° C. for 15 minutes. To the PMA stimulated group 10 μL/tube 10^-5 M PMA is added. To the opsonized zymosan stimulated group 20 μL/tube 10 mg/ml opsonized zymosan is added. The tubes are mixed gently to disperse cells and stimulus (if any) and 100 μL is pipetted into each of four microtiter plates. The plates are covered and incubated 1 hour at 37° C. in CO2.
After the incubation period 10 μL 1N NaOH is added to each test well to develop the color. A blanking well is made up of 110 μl distilled water.
Mean OD values are calculated for each set of quadruplicate wells. Any artifactual change in absorbance due to a direct drug effect on the detection system is subtracted out from the ΔOD of the stimulated cells+drug tubes. The % inhibition of H2 O2 release by PMA or opsonized zymosan is calculated relative to the "O drug" control for each stimulus as follows: […]

[6] = system: carrageenan induced paw edema in male CD rats; experiment: Carrageenan Induced Paw Edema in Rats; type: in vivo, rat
Procedure: This test is used to determine the ability of a compound to affect non-immune acute inflammation. Edema is produced in the right hind paw of male CD rats (150±10 g) by the subplantar injection of carrageenan (0.1 ml of a 1 percent suspension in saline). Ten rats are used in each test group. Test compound or its vehicle is administered orally 1 hour prior to carrageenan injection. Paw volume is determined by calculating the amount of mercury displaced after immersing the paw to the level of the lateral malleolus. Foot volumes are measured just prior to test compound administration and again 3 hours after carrageenan injection and the difference designated as edema volume.

5-Lipoxygenase = molecular target: T1, 5-Lipoxygenase (Oryctolagus cuniculus, UniProt G1SNX0); experiment: Hydroxyacid Profile Assay of 5-Lipoxygenase Derived Arachidonic Acid Metabolites (5-HETE biosynthesis by glycogen-elicited PMNs); type: cell-based, rabbit
T1 construct: glycogen elicited rabbit PMNs; endogenous in cells; host or cells: glycogen-elicited rabbit polymorphonuclear leucocytes (PMNs)
T1 sequence (G1SNX0 1-674): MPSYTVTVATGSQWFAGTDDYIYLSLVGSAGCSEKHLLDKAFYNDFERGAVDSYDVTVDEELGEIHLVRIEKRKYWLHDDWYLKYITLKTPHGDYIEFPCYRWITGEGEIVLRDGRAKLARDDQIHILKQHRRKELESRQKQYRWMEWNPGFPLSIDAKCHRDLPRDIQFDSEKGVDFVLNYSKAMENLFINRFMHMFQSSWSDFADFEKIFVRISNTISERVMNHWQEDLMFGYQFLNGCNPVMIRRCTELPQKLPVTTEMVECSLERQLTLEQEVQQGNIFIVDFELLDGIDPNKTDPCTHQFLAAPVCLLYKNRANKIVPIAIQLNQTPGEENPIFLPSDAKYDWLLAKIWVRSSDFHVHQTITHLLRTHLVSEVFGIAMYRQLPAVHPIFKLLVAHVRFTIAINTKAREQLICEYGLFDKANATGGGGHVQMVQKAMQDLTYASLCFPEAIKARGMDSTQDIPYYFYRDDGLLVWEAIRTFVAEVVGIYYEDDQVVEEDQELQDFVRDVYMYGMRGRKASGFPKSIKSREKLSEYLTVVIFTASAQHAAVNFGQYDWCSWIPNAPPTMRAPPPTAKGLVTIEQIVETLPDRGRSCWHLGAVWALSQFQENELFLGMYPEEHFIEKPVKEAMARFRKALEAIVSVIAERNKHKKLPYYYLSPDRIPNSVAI
Procedure: Buffer A (8.70 g NaCl; 0.27 g KCl; 0.42 g Na2 HPO4; 0.76 g KH2 PO4; and 1.00 g dextrose per liter H2 O; pH 7.0) (0.325 ml) is introduced into each of a battery of screwtop culture tubes. Then, a compound (0.100 ml) to be assayed is dispensed into individual tubes. Dose-response curves are determined by triplicate measurements at each concentration. Control tubes receive Buffer A (0.100 ml) in lieu of compound. Next, glycogen elicited rabbit PMNs (2×10^7 cells/tube; 4×10^7 cells/ml (0.500 ml) are added to each tube. The tubes are vortexed and preincubated in a shaking 37° C. water bath for 15 minutes.
Thereafter, the tubes are removed from the water bath and Calcium Ionophore Solution (400 μg/ml A-23187; Sigma Chemical Co., St. Louis, MO) (0.025 ml), ^14 C-arachidonic acid (0.25 μCi in 0.025 ethanol; New England Nuclear Products, Boston, MA) (0.025 ml) and Ca^+2 solution (CaCl2.2H2 O); 105.8 mg/10 ml H2 O) (0.025 ml) are added in that order. The tubes are vortexed and returned to the water bath for 30 minutes. The reaction is then terminated by the addition of HCl (0.8N, 0.025 ml).
Extraction and concentration of ^14 C-labeled 5-HETE is performed as follows. First, a solution (5.01 ml) containing 2 parts ethyl acetate, 3 parts CH2 Cl2 and unlabeled arachidonic acid (0.01 ml) is added to each tube. The tubes are capped and briefly vortexed. The contents of each tube are poured into a polypropylene column fitted with a porous polyethylene disc and Whatman phase separation filter paper. The organic phase is collected by gravity filtration into a conical centrifuge tube, while the aqueous phase is retained in the column by the phase separation paper. Each culture tube is rinsed once with the EtOAc:CH2 Cl2 solution (no arachidonic acid) (0.1 ml) and the wash added to the column. The organic phase is concentrated (to 0.5 ml) using a Savant Speed Vac concentrator (Savant Instruments, Inc., Hicksville, NY).
After concentration of the organic phase, the tubes are vortexed and stored covered on ice. An aliquot (0.01 ml) is then removed for liquid scintillation counting in a Beckman LS7500 Liquid Scintillation Counter (Beckman Instruments Corp., Fullerton, CA). […] This volume is applied to a silica gel covered glass plate in a 10 mm streak. The remaining fluid in the tube is measured via syringe and noted.
The TLC plate is placed in a chromatography chamber containing the following solvent system: CHCl3 :MeOH:HOAc:H2 O(v/v; 90:9:1:0.65). The plate is then air dried and counter on a Berthold Linear TLC Analyzer (Berthold Instruments, Inc., Pittsburgh, PA) for 30 minutes per lane. The integrated area of the 5-HETE band for each compound is converted to percent of control and analyzed.

## CC(C)(C)c1cc(C=Cc2ccncc2)cc(C(C)(C)C)c1O [4-[2-(3',5'-di-t-butyl-4'-hydroxyphenyl)ethenyl]pyridine, reference compound]
[1]; 50 mg/kg
  % Inhibition: 0%

## CC(C)(C)c1cc(C=Cc2cccnc2)cc(C(C)(C)C)c1O [Compound 1, 3-[2-(3,5-di-t-butyl-4-hydroxyphenyl)ethenyl]-pyridine]
[2]; 5.0 mg/kg, oral, daily days 14-27
  % Inhibition: 60%
[2]; 10.0 mg/kg, oral, daily days 14-27
  % Inhibition: 74%
[2]; 20.0 mg/kg, oral, daily days 14-27
  % Inhibition: 79%
[2]; 40.0 mg/kg, oral, daily days 14-27
  % Inhibition: 82%
[2]; in words
  activity in established adjuvant arthritis screen in the rat: active
[2]; rat established adjuvant arthritis, oral, daily days 14-27
  ED50: 4 mg/kg
In vivo
  TD50 at 24 h: 200 mg/kg
[3]; 3 × 10^-5 M
  inhibition at 30 µM: 100%
[3]; 3 × 10^-6 M
  inhibition at 3 µM: 18%
[3]; 10^-5 M
  inhibition at 10 µM: 67%
[3]; 10^-6 M
  inhibition at 1 µM: 0%
[3]; LTC4 release, MMC-16 cells
  IC50: 7 µM
[1]; 5 mg/kg
  % Inhibition: 56%
[1]; 50 mg/kg
  % Inhibition: 82%
[1]; in words
  activity in developing adjuvant arthritis screen in the rat: active
[4]; 1 mg/kg oral, hour 1
  % Inhibition: 17%
[4]; 1 mg/kg oral, hour 2
  % Inhibition: 19%
[4]; 1 mg/kg oral, hour 3
  % Inhibition: 26%
[4]; 1 mg/kg oral, hour 4
  % Inhibition: 10%
[4]; 30 mg/kg oral, hour 1
  % Inhibition: 29%
[4]; 30 mg/kg oral, hour 2
  % Inhibition: 50%
[4]; 30 mg/kg oral, hour 3
  % Inhibition: 55%
[4]; 30 mg/kg oral, hour 4
  % Inhibition: 44%
[4]; 100 mg/kg oral, hour 1
  % Inhibition: 7%
[4]; 100 mg/kg oral, hour 2
  % Inhibition: 48%
[4]; 100 mg/kg oral, hour 3
  % Inhibition: 55%
[4]; 100 mg/kg oral, hour 4
  % Inhibition: 22%
[4]; in words
  activity in reverse passive arthus screen: active
[5]; read-out: Opsonized Zymosan Stimulated Oxidative Burst IC50
  IC50: 14 µM
[5]; read-out: PMA Stimulated Oxidative Burst IC50
  IC50: 25 µM
[5]; in words
  release of pro-inflammatory oxygen metabolites from stimulated neutrophils: inhibited
[6]; 100 mg/kg, oral, 1 hour prior to carrageenan, edema at 3 hours
  % Inhibition: 56%
[6]; in words
  activity in carrageenan paw edema screen: active
5-Lipoxygenase
  IC50: 3 µM
5-Lipoxygenase; 5 × 10^-5 M
  inhibition at 50 µM: 66%
5-Lipoxygenase; 5 × 10^-6 M
  inhibition at 5 µM: 68%
5-Lipoxygenase; 5 × 10^-7 M
  inhibition at 0.5 µM: 18%
5-Lipoxygenase; 10^-5 M
  inhibition at 10 µM: 67%
5-Lipoxygenase; 10^-6 M
  inhibition at 1 µM: 29%
5-Lipoxygenase; in words
  inhibition of 5-lipoxygenase: inhibit
